Where a SMILES comes first, the peptide text is derived from it. [ ]: non-standard residue; d: D form. Nle = CCCC[C@H](N)C(=O)O
Tests used:
[1] = cited from earlier work
[2] = tested on: VDAC; test: live imaging of HEK-293 cells transfected with mitoGCaMP2 or GCaMP2, MJ treatment; type: cell-based; conditions: MJ 6 mM
Experimental: (§1) FIG. 5. Time-lapse quantification of mitoGCaMP2 (A) and GCaMP2 (B) fluorescence levels within mitochondria and within the cytosol respectively. Quantifications of fluorescence levels of HEK-293 cells transfected with mitoGCaMP2 (A) and GCaMP2 (B) probes. Control (circle) represents the fluorescence level in mitochondria when treating the cells with the diluents 0.1 DMSO and 5% EtOH used for MJ and compound solubilization. MJ was tested at 6 mM and compound 1a at 33 μM. Statistical analysis using two-way ANOVA followed by Tukeys's multiple comparison tests (N=3 independent experiments). Results are expressed as means±SEM. **p<0.01, ****p<0.0001, ns. non significant. A. U. arbitrary unit
(§2) Live imaging experiments were performed on HEK-293 cells transfected with either the mitoGCaMP2 or the GCaMP2 plasmids. 500,000 cells per well were seeded in 6-well microplate (NUNC, reference 153066, Thermo Fisher Scientific, France) in 1 ml of DMEM supplemented with 10% FBS and 1% PS. 48 h after seeding, cells were transfected with 2 μg of mitoGCaMP2 or GCaMP2 plasmids using jet-PRIME reagent according to the manufacturer's protocol. 48h after transfection, the microplates were placed under a videomicroscope equipped with a humidified chamber at 37° C. and with 5% CO2. Next, 6 mM of pre-heated MJ (37° C.) was added to the wells with or without the peptide 1a at 33 μM in 1 ml of DMEM without red phenol supplemented with 10% FBS and 1% PS, and containing 0.1% DMSO and 5% EtOH. In parallel, wells containing only 1 ml of DMEM without red phenol and with 10% FBS, 1% PS, 0.1% DMSO and 5% EtOH served as control condition. Live imaging acquisition was triggered when adding MJ with or without the peptide 1a. For the control condition, image acquisition was triggered after addition of 1 ml of DMEM without red phenol supplemented with 10% FBS and 1% PS, containing 0.1% DMSO and 5% EtOH. […] Overall, 5 ROIs per condition were analyzed using Zen software (Zen 2.3 lite, Zeiss, France) and ImageJ software (version 1.52o, NIH, USA). Results are expressed as the mean±SEM using GraphPad Prism software (version 8.0.1). […]

[3] = tested on: HEK293 cells; test: Rhod-2 mitochondrial calcium imaging in HEK293 cells, methyl jasmonate (Example 2); type: cell-based; conditions: methyl jasmonate 6 mM, 40 minutes; 5z peptide 5 μM or AAV9 infection
Experimental: (§3) FIG. 12: AAV9 represents an efficient way to sustain anti-demyelinating peptide expression in target cells. HEK293 cells were infected with a control AAV9 or AAV9-HK peptide or not infected. Two days later cells were incubated with a fluorescent dye Rhod-2 that fluoresces with calcium in mitochondria. 15 minutes later infected cells were incubated with methyl jasmonate (6 mM) and non-infected cells were incubated with methyl jasmonate (6 mM)+5z peptide (5 μM) for 40 minutes. Pictures were taken every 5 minutes imaging Rhod-2 dye.
as §3, with “We produced an” for “FIG. 12:”, “virus expressing HK” for “represents an efficient way to sustain anti-demyelinating”, “5z (AAV9-HK peptide).” for “expression in target cells.”

[4] = tested on: Schwann cells; conditions: cited from earlier work
[5] = molecular target: T1, VDAC (Homo sapiens, UniProt P21796); test: time-lapse recording of mitochondrial calcium probe mito-GCaMP2 in HEK293 cells treated with MJ and HK1 N-terminal peptides (FIG. 3); type: cell-based; conditions: peptides at 5 microMolar, MJ 6 mM
T1 construct: HEK-293 cells, expressing VDAC and HK; endogenous in cells; host or cells: HEK-293 (ATCC), transfected only with the Ca2+ probes mitoGCaMP2 / GCaMP2
T1 sequence (P21796 2-283): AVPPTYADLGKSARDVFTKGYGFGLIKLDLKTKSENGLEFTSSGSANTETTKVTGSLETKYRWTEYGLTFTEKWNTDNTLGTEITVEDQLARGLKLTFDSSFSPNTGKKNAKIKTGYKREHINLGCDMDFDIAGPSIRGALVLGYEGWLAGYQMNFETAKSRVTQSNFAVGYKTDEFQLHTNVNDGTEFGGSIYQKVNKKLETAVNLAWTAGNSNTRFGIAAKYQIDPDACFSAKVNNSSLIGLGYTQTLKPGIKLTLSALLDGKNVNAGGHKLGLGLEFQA
Experimental: FIG. 3: Time-lapse recording of fluorescence intensity of the mitochondrial calcium probe in HEK293 cells treated with Methyl Jasmonate (MJ, 6 milliMolar) and Nterminal peptide of wt HK1 (HK1-Nt peptide) or Nterminal peptide of mutated HK1 (HKmut-Nt peptide). HEK 293 cells were transfected with a plasmid expressing mito-GCaMP2. 48 hours later cells were imaged using a Zeiss Axio-observer designed for live-imaging and treated with MJ (6 mM) and/or peptides at 5 microMolar. Peptide sequences: wt HK1 peptide Ac-[…]-NH2 (SEQ ID NO:90), CMT4G-mutated HK1 peptide Ac-[…]-NH2 (SEQ ID NO:91) and Control peptide Ac-[…]-NH2 (SEQ ID NO:92).

[6] = molecular target: T1, VDAC; test: in-cellulo screening assay: HEK-293 cells transfected with mitoGCaMP2, MJ-induced mitochondrial Ca2+ release through VDAC; type: cell-based
Experimental: The activity of the designed compounds was assessed on HEK-293 cells transfected with mitoGCaMP2. 40,000 cells per well were seeded in 96-well-microplates coated with Poly-D-Lysine (reference 655946, Greiner Bio-One, France) in 200 μl of DMEM supplemented with 10% FBS and 1% PS. 24 h after seeding, cells were transfected with 50 ng of mitoGCaMP2 plasmid per well using jet-PRIME reagent (Polyplus-transfection S.A, France) according to the manufacturer's recommendations. 48 h after transfection, a first measure of fluorescence was performed using the microplate reader CLARIOstar® (BMG Labtech, France). This measurement represented the basal level of Ca2+ into the mitochondria upon transfection. After a wash with 100 μl of PBS, cells were incubated with a mixture of pre-heated (37° C.) MJ at a final concentration of 6 mM and compounds at the indicated final concentrations in PBS containing 0.1% DMSO and 5% EtOH. After 35 min in a cell incubator, a second measure of fluorescence was performed using the microplate reader CLARIOstar®. This measure represented the level of mitochondrial Ca2+ according to the peptide activity. Compounds were tested in triplicates per microplates and in three or five independent experiments for each peptide. For dose effect curves, compounds were tested in triplicates per microplates and in three independent experiments. Results are expressed as the ratio between the second and first measures and normalized to the conditions without compounds containing only PBS with 0.1% DMSO and 5% EtOH. Results are expressed as the means±SD in histogram plots and dose response curves using GraphPad Prism software (version 8.0.1).
The biological screening of the peptide is based on the ability of methyl jasmonate (MJ) to binds and detaches HK-1 from mitochondrial VDAC in a time and dose dependent manner.^16,20 For this purpose, we developed an in-cellulo screening assay in which HEK-293 cells, expressing VDAC and HK,25 were transfected with GCaMP2, a cytoplasmic Ca2+-sensing probe, or with mitoGCaMP2, the same probe addressed to mitochondrial matrix. […] MJ that removes HK from VDAC was used to induce a Ca2+ release outside mitochondria measured through a drop in mitoGCaMP2 fluorescence and an increase in GCaMP2 fluorescence in cells.

[7] = molecular target: T1, VDAC; test: live imaging of HEK-293 cells transfected with mitoGCaMP2 or GCaMP2, MJ treatment; type: cell-based; conditions: peptide at 33 μM, MJ 6 mM, 30 min
Experimental: as §1, §2

Molecule: GRKKRRQRRRPQ [Tat]
- half-life in serum [1]: less than 6 min

Molecule: CC/C=C\CC1C(=O)CCC1CC(=O)OC (centres unmarked) [MJ, Methyl jasmonate]
- mitoGCaMP2 fluorescence (mitochondrial Ca2+) ([2]; at least 30 min): significant decrease
- GCaMP2 fluorescence (cytoplasmic Ca2+) ([2]; same timeframe): increased significantly
- Rhod-2 fluorescence in mitochondria [3]: decrease
- demyelination [4]: spontaneous demyelination

Molecule: Ac-MGQICQRESATAAEKGRKKRRQRRRPPQ-NH2 [peptide derived from the mutant HK1]
- mitochondrial calcium release following MJ treatment [5]: no effect

Molecule: AQWWAYYYTEWK [5z, tested peptide also contains Tat]
- activity / affinity for VDAC on the screening assay (mitoGCaMP2 fluorescence) ([6]; compounds at 3 μM, MJ 6 mM, compared with 3c, 4d or 5x): more significant
- Rhod-2 fluorescence in mitochondria [3]: no decrease occurred

Molecule: Ac-MIAAQLLAYYFTELKGRKKRRQRRRPPQ-NH2
- mitochondrial calcium release following MJ treatment [5]: able to prevent mitochondrial calcium release

Molecule: CCCC[C@H](NC(C)=O)C(=O)N[C@H](C(=O)N[C@@H](C)C(=O)N[C@@H](C)C(=O)N[C@@H](CCC(N)=O)C(=O)N[C@@H](CC(C)C)C(=O)N[C@@H](CC(C)C)C(=O)N[C@@H](C)C(=O)N[C@@H](Cc1ccc(O)cc1)C(=O)N[C@@H](Cc1ccc(O)cc1)C(=O)N[C@@H](Cc1ccccc1)C(=O)N[C@H](C(=O)N[C@@H](CCC(=O)O)C(=O)N[C@@H](CC(C)C)C(=O)N[C@@H](CCCCN)C(=O)NCC(=O)N[C@@H](CCCNC(=N)N)C(=O)N[C@@H](CCCCN)C(=O)N[C@@H](CCCCN)C(=O)N[C@@H](CCCNC(=N)N)C(=O)N[C@@H](CCCNC(=N)N)C(=O)N[C@@H](CCC(N)=O)C(=O)N[C@@H](CCCNC(=N)N)C(=O)N[C@@H](CCCNC(=N)N)C(=O)N[C@@H](CCCNC(=N)N)C(=O)N1CCC[C@H]1C(=O)N1CCC[C@H]1C(=O)N[C@@H](CCC(N)=O)C(N)=O)[C@@H](C)O)[C@@H](C)CC [1a] (Ac-[Nle]IAAQLLAYYFTELKGRKKRRQRRRPPQ-NH2)
- IC50 ([6]; HEK-293 mitoGCaMP2, MJ 6 mM, 35 min, dose response, read-out: IC50 on mitochondrial Ca2+ release through VDAC): 15.6 ± 2 µM
- fluorescence change induced by MJ treatment (mitoGCaMP2 and GCaMP2) [7]: blocked

Source: patent US20240228987A1, “HEXOKINASE-DERIVED PEPTIDES AND THERAPEUTICAL USES THEREOF” (INSERM (INSTITUT NATIONAL DE LA SANTÉ ET DE LA RECHERCHE …, priority 2021, published 2024)
